Results from patent US8188059B2, “Compounds and methods for modulating expression of GCGR” (Isis Pharmaceuticals, Inc., priority 2006, dated 2012).
Strand notation (5' to 3'): a small letter for the sugar, then the base; units joined by * are phosphorothioate-linked, units joined directly phosphodiester-linked; [ ] holds rarer units or linkages, { } end groups; capitals alone tell only the bases. e = 2'-O-(2-methoxyethyl) (MOE); [5mC] = 5-methylcytosine; d = 2'-deoxy (DNA)

Key:
ApoB mRNA = ApoB mRNA level in liver of Balb/c mice, i.p. twice per week for three weeks (Example 3, Table 29); format: in vivo, mouse; settings: for ApoB mRNA level: Table 30 (rounded); for % ApoB mRNA Level (relative to saline control): liver
Procedure: Prior to quantitative PCR analysis, primer-probe sets specific to the target gene being measured were evaluated for their ability to be “multiplexed” with a GAPDH amplification reaction. After isolation the RNA is subjected to sequential reverse transcriptase (RT) reaction and real-time PCR, both of which are performed in the same well. RT and PCR reagents were obtained from Invitrogen Life Technologies (Carlsbad, Calif.). […] The RT reaction was carried out by incubation for 30 minutes at 48° C. Following a 10 minute incubation at 95° C. to activate the […]® Taq, 40 cycles of a two-step PCR protocol were carried out: 95° C. for 15 seconds (denaturation) followed by 60° C. for 1.5 minutes (annealing/extension).
(§1) Antisense compound doses included 2.4, 1.2, 0.6, 0.3 and 0.15 μmol/kg. For antisense compounds 14 nucleotides in length, these doses equate to approximately 12, 6, 3, 1.5 or 0.75 mg/kg, respectively. Shown in Table 25 are the sequences and motifs of the antisense compounds used in this study. […] Bolded residues indicate 2′-O-methoxyethyl moieties and italicized residues indicate methyleneoxy (4′-CH2—O-2′) BNAs. The internucleoside linkages of each compound are phosphorothioate throughout. All cytosine residues of ISIS 147764 and ISIS 372938 are replaced by 5-methyl cytosines. For ISIS 387462, only the cytosine residue in the wing of the compound is replaced by 5-methyl cytosine. ApoB antisense compounds are targeted to publicly available ApoB-100 sequences, including Genbank Accession No. XM—137955.5 (SEQ ID NO: 2).
(§2) Forty-eight hours following the final injection, mice were sacrificed to evaluate transaminases (Table 26); liver and kidney weight (Table 27); triglyceride, LDL, HDL and free fatty acid levels (Table 28); target mRNA level in liver (Table 29); target protein level in plasma; and oligonucleotide tissue concentration (Table 30). These endpoints were determined using methods described herein and well known to those of ordinary skill in the art.

[1] = ALT and AST levels, Balb/c mice (Example 3, Table 26); format: in vivo, mouse; settings: 48 h after final injection
Procedure: as §1, §2

[2] = Liver and kidney weight, total body weight and food consumption (Example 3, Table 27); format: in vivo, mouse; settings: Balb/c mice
Procedure: as §1, §2

[3] = Triglyceride, total cholesterol, HDL, LDL, free fatty acid and glucose levels (Example 3, Table 28); format: in vivo, mouse; design: Free Fatty Acid (FFA): unit not given here; settings: Balb/c mice
Procedure: as §1, §2
Glucose levels also were similar among all treatment groups.

[4] = Full-length and total antisense compound tissue concentration in liver and kidney (Example 3, Table 30); format: in vivo, mouse; settings: Balb/c mice, 2.4 μmol/kg i.p. twice per week for three weeks
Procedure: as §1, §2
To determine whether the observed increase in efficiency with the methyleneoxy (4′-CH2—O-2′) BNA gapmer is due to an increase in oligonucleotide accumulation, full-length and total oligonucleotide concentration in the liver and kidney were determined.

monkey GCGR mRNA = test: Antisense inhibition of GCGR in primary monkey hepatocytes, 25-200 nM (Example 21, Table 80); format: cell-based; settings: relative to untreated control cells
Procedure: Additional short antisense compounds targeted to a GCGR nucleic acid were tested for their effects on monkey GCGR mRNA in vitro. Cultured primary monkey hepatocytes were treated as described herein with 25, 50, 100 or 200 nM of short antisense compound. After the treatment period, RNA was isolated from the cells and GCGR mRNA levels were measured by quantitative real-time PCR, as described herein. GCGR mRNA levels were adjusted according to total RNA content as measured by RIBOGREEN®. Results are presented in Table 80 as percent reduction in GCGR mRNA, relative to untreated control cells.

[5] = 2.4 μmol/kg i.p. twice per week for three weeks
[6] = 0.15 μmol/kg i.p. twice per week for three weeks
[7] = 0.3 μmol/kg i.p. twice per week for three weeks
[8] = 0.6 μmol/kg i.p. twice per week for three weeks
[9] = 1.2 μmol/kg i.p. twice per week for three weeks

Substance: 147764 (antisense eG*eT*e[5mC]*e[5mC]*e[5mC]*dT*dG*dA*dA*dG*dA*dT*dG*dT*d[5mC]*eA*eA*eT*eG*e[5mC]) [compound 147764]
- ApoB mRNA level (ApoB mRNA; [5]): 58 % of saline control
- % ApoB mRNA Level (relative to saline control) (ApoB mRNA; [5]): 57.7%
- ALT [1, 5]: 29.5 IU/L
- AST [1, 5]: 64.0 IU/L
- Kidney Weight [2, 5]: 105 % of saline control
- Liver Weight [2, 5]: 102 % of saline control
- Free Fatty Acid (FFA) [3, 5]: 1.29
- HDL [3, 5]: 81.3 mg/dL
- LDL [3, 5]: 10.3 mg/dL
- Total Cholesterol (CHOL) [3, 5]: 107 mg/dL
- Triglyceride (TRIG) [3, 5]: 167 mg/dL
- Kidney Full-Length antisense compound tissue concentration [4]: 28.6 µM
- Kidney Total antisense compound tissue concentration [4]: 33.5 µM
- Liver Full-Length antisense compound tissue concentration [4]: 22.9 µM
- Liver Total antisense compound tissue concentration [4]: 31.3 µM

Substance: 327131 (antisense eA*eT*eG*dT*dT*dG*dG*d[5mC]*d[5mC]*dG*dT*eG*eG*eT) [compound 327131]
- percent reduction in GCGR mRNA (monkey GCGR mRNA; 25 nM): 0
- percent reduction in GCGR mRNA (monkey GCGR mRNA; 50 nM): −8
- percent reduction in GCGR mRNA (monkey GCGR mRNA; 100 nM): −36
- percent reduction in GCGR mRNA (monkey GCGR mRNA; 200 nM): −36

Substance: 372938 (antisense eG*eG*dT*dA*d[5mC]*dA*dT*dG*dG*dA*dA*dG*eT*e[5mC]) [compound 372938]
- ApoB mRNA level (ApoB mRNA; [5]): 77 % of saline control
- % ApoB mRNA Level (relative to saline control) (ApoB mRNA; [6]): 93.1%
- % ApoB mRNA Level (relative to saline control) (ApoB mRNA; [7]): 92.6%
- % ApoB mRNA Level (relative to saline control) (ApoB mRNA; [8]): 87.3%
- % ApoB mRNA Level (relative to saline control) (ApoB mRNA; [9]): 90.0%
- % ApoB mRNA Level (relative to saline control) (ApoB mRNA; [5]): 77.0%
- ALT [1, 6]: 28.3 IU/L
- AST [1, 6]: 50.3 IU/L
- ALT [1, 7]: 28.3 IU/L
- AST [1, 7]: 60.0 IU/L
- ALT [1, 8]: 28.0 IU/L
- AST [1, 8]: 79.3 IU/L
- ALT [1, 9]: 24.8 IU/L
- AST [1, 9]: 49.5 IU/L
- ALT [1, 5]: 26.0 IU/L
- AST [1, 5]: 49.0 IU/L
- Kidney Weight [2, 6]: 98 % of saline control
- Liver Weight [2, 6]: 96 % of saline control
- Kidney Weight [2, 7]: 107 % of saline control
- Liver Weight [2, 7]: 91 % of saline control
- Kidney Weight [2, 8]: 112 % of saline control
- Liver Weight [2, 8]: 96 % of saline control
- Kidney Weight [2, 9]: 101 % of saline control
- Liver Weight [2, 9]: 90 % of saline control
- Kidney Weight [2, 5]: 100 % of saline control
- Liver Weight [2, 5]: 100 % of saline control
- Free Fatty Acid (FFA) [3, 6]: 1.57
- HDL [3, 6]: 82.8 mg/dL
- LDL [3, 6]: 10.8 mg/dL
- Total Cholesterol (CHOL) [3, 6]: 106 mg/dL
- Triglyceride (TRIG) [3, 6]: 151 mg/dL
- Free Fatty Acid (FFA) [3, 7]: 1.53
- HDL [3, 7]: 84.3 mg/dL
- LDL [3, 7]: 11.0 mg/dL
- Total Cholesterol (CHOL) [3, 7]: 109 mg/dL
- Triglyceride (TRIG) [3, 7]: 138 mg/dL
- Free Fatty Acid (FFA) [3, 8]: 1.66
- HDL [3, 8]: 83.3 mg/dL
- LDL [3, 8]: 10.8 mg/dL
- Total Cholesterol (CHOL) [3, 8]: 110 mg/dL
- Triglyceride (TRIG) [3, 8]: 184 mg/dL
- Free Fatty Acid (FFA) [3, 9]: 1.70
- HDL [3, 9]: 77.8 mg/dL
- LDL [3, 9]: 9.5 mg/dL
- Total Cholesterol (CHOL) [3, 9]: 101 mg/dL
- Triglyceride (TRIG) [3, 9]: 136 mg/dL
- Free Fatty Acid (FFA) [3, 5]: 1.28
- HDL [3, 5]: 79.0 mg/dL
- LDL [3, 5]: 10.3 mg/dL
- Total Cholesterol (CHOL) [3, 5]: 104 mg/dL
- Triglyceride (TRIG) [3, 5]: 153 mg/dL
- Kidney Full-Length antisense compound tissue concentration [4]: 32.0 µM
- Kidney Total antisense compound tissue concentration [4]: 34.0 µM
- Liver Full-Length antisense compound tissue concentration [4]: 5.49 µM
- Liver Total antisense compound tissue concentration [4]: 7.76 µM
